Patent publication US5731328A, “Methods of inhibiting plasminogen activator inhibitor 1” (Eli Lilly and Company, priority 1996, dated 1998)

Key:
[1] = system: Human umbilical vein endothelial cells (HUVEC); experiment: Responsiveness of HUVEC lots to 17-beta estradiol; assay type: cell-based; details: several lots of cells from Clonetics, initial experiments
[2] = system: secretion of PAI-1 from human endothelial cells (HUVEC); experiment: Endothelial cell PAI-1 assay: IL-1 induced PAI-1 secretion, Imubind Plasma PAI-1 ELISA; assay type: cell-based
Description: 96 well tissue culture plates were prepared with 5×10^4 human endothelial cells (HUVEC) per well in Clonetics' Endothelial Cell Growth Medium (EGM) supplemented with 2% FBS. Following incubation overnight at 37° C., the medium was replaced with serum-free medium (DMEM/F-12 medium, 20 mM-HEPES, pH 7.5, 50 μg/ml gentamicin, 1 μg/ml human transferrin and 1 μg/ml bovine insulin) with or without compound 1, (where R1 and R2 are hydroxy, and […] is pyrrolidino), and with or without 1 nM IL-1-beta. Following incubation overnight at 37° C., samples of culture medium were assayed for secreted PAI-1 using the Imubind Plasma PAI-1 ELISA (American Diagnostic Inc. #822/1S).
Human umbilical vein endothelial cells (HUVEC) were treated with compound 1 concurrent to the induction of PAI-1 with IL-1. […] Further the positive effect of compound 1 on reducing PAI-1 may provide for acute uses in conditions where elevated levels are associated with pathology.

estrogen receptor = details: cited from earlier work
PAI-1 = details: post-menopausal women, estrogen therapy; cited from earlier work

C[C@]12CC[C@@H]3c4ccc(O)cc4CC[C@H]3[C@@H]1CC[C@@H]2O [17-beta estradiol]
responsiveness of HUVEC lots (in words) [1]: not all lots were responsive

O=C(c1ccc(OCCN2CCCC2)cc1)c1c(-c2ccc(O)cc2)sc2cc(O)ccc12 [Compound 1]
induction of PAI-1 by IL-1 (in words) ([2]; 0.5 nM, estrogen-responsive line): significantly reduced the induction of PAI-1 by IL-1
inhibition at 0.005 µM ([2]; Homo sapiens, 5 × 10^-9 M, IL-1 induced secretion, different lot of estrogen-responsive HUVEC, read-out: PAI-1 Level (% inhibition)): 82 ± 17%
inhibition at 0.0005 µM ([2]; Homo sapiens, 5 × 10^-10 M, IL-1 induced secretion, different lot of estrogen-responsive HUVEC, read-out: PAI-1 Level (% inhibition)): 65 ± 8%
inhibition at 50 pM ([2]; Homo sapiens, 5 × 10^-11 M, IL-1 induced secretion, different lot of estrogen-responsive HUVEC, read-out: PAI-1 Level (% inhibition)): 48 ± 11%
inhibition at 5 pM ([2]; Homo sapiens, 5 × 10^-12 M, IL-1 induced secretion, different lot of estrogen-responsive HUVEC, read-out: PAI-1 Level (% inhibition)): 22 ± 4%
inhibition at 500 fM ([2]; Homo sapiens, 5 × 10^-13 M, IL-1 induced secretion, different lot of estrogen-responsive HUVEC, read-out: PAI-1 Level (% inhibition)): -1 ± 7%
inhibition at 50 fM ([2]; Homo sapiens, 5 × 10^-14 M, IL-1 induced secretion, different lot of estrogen-responsive HUVEC, read-out: PAI-1 Level (% inhibition)): 0%
PAI-1 Level (mean +/- SE, n = 4) ([2]; IL-1 & .5 nM compound 1, HUVEC, overnight at 37° C., serum-free medium, No IL-1 control 328 +/- 46, IL-1 alone 735 +/- 11): 521 ± 52 ng/mL
inhibition of IL-1 induced PAI-1 secretion, concentration dependence (in words) ([2]; different lot of estrogen-responsive cells): inhibited IL-1 induced secretion in a concentration-dependent manner
inhibition of the induction of PAI-1 from activated endothelial cells (in words) ([2]; summary of Tables 1 and 2): very potent inhibitor

O=C(c1ccc(OCCN2CCCCC2)cc1)c1c(-c2ccc(O)cc2)sc2cc(O)ccc12 [Raloxifene]
binding to the estrogen receptor (in words) (estrogen receptor): shown to bind to the estrogen receptor

estrogen
reduction of PAI-1 levels (in words) (PAI-1): reduced to pre-menopausal levels
